Several values for one entry are separate records, joined by “and”; a condition that tells them apart may be missing. Equal entries are not always repeated. Inconclusive results and toxic doses are left out.
Tested on: P388 leukemia ip, CD2F1 mice, survival T/C
Assay: NCI In Vivo Anticancer Drug Screen. Data for tumor model P388 Leukemia (intraperitoneal) in CD2F1 (CDF1) mice
Details: endpoint: median survival time, higher = longer survival
Procedure, shortened: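 Mice carrying the transplanted tumor received test compound or vehicle. Survival was recorded in each group, and the value is the treated-group measurement divided by that of the vehicle-treated control group.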

[1] = dose: 25.0 mg/kg/injection, schedule: Q01DX009 (ip), vehicle: saline with Tween-80
[2] = dose: 50.0 mg/kg/injection, schedule: Q01DX009 (ip), vehicle: saline with Tween-80
[3] = dose: 100.0 mg/kg/injection, schedule: Q01DX009 (ip), vehicle: saline with Tween-80
[4] = dose: 50.0 mg/kg/injection, schedule: Q01DX009 (ip), vehicle: saline
[5] = dose: 100.0 mg/kg/injection, schedule: Q01DX009 (ip), vehicle: saline
[6] = dose: 200.0 mg/kg/injection, schedule: Q01DX009 (ip), vehicle: saline

COc1cc(NS(C)(=O)=O)ccc1Nc1c2ccccc2nc2ccccc12
T/C (dose: 0.25 mg/kg/injection, schedule: Q01DX009 (ip), vehicle: other): 119 % of control | T/C (dose: 0.52 mg/kg/injection, schedule: Q01DX009 (ip), vehicle: other): 151 % of control | T/C (dose: 0.86 mg/kg/injection, schedule: Q01DX009 (ip), vehicle: other): 163 % of control | T/C (dose: 1.0 mg/kg/injection, schedule: Q01DX005 (iv), vehicle: other): 120 % of control | T/C (dose: 1.0 mg/kg/injection, schedule: Q01DX009 (ip), vehicle: other): 157 % of control | T/C (dose: 1.0 mg/kg/injection, schedule: Q04DX003 (ip), vehicle: other): 118 % of control | T/C (dose: 1.44 mg/kg/injection, schedule: Q01DX009 (ip), vehicle: other): 173 % of control | T/C (dose: 1.5 mg/kg/injection, schedule: Q04DX003 (ip), vehicle: clinical formulation): 152 % of control | T/C (dose: 2.0 mg/kg/injection, schedule: Q01DX005 (ip), vehicle: other): 153 % of control and 163 % of control | T/C (dose: 2.0 mg/kg/injection, schedule: Q01DX005 (oral), vehicle: other): 111 % of control | T/C (dose: 2.0 mg/kg/injection, schedule: Q01DX009 (ip), vehicle: other): 175 % of control and 195 % of control | T/C (dose: 2.0 mg/kg/injection, schedule: Q04DX003 (oral), vehicle: other): 111 % of control | T/C (dose: 2.4 mg/kg/injection, schedule: Q01DX009 (ip), vehicle: other): 209 % of control | T/C (dose: 2.5 mg/kg/injection, schedule: Q04DX002 (ip), vehicle: clinical formulation): 153 % of control and 173 % of control | T/C (dose: 2.5 mg/kg/injection, schedule: Q04DX003 (ip), vehicle: other): 155 % of control | T/C (dose: 2.59 mg/kg/injection, schedule: Q04DX003 (ip), vehicle: clinical formulation): 167 % of control | T/C (dose: 2.59 mg/kg/injection, schedule: Q04DX003 (ip), vehicle: saline): 168 % of control | T/C (dose: 2.59 mg/kg/injection, schedule: Q04DX003 (ip), vehicle: water): 161 % of control and 163 % of control and 179 % of control | T/C (dose: 2.6 mg/kg/injection, schedule: Q04DX002 (ip), vehicle: other): 160 % of control | T/C (dose: 3.0 mg/kg/injection, schedule: Q04DX003 (ip), vehicle: clinical formulation): 160 % of control | T/C (dose: 4.0 mg/kg/injection, schedule: Q01DX005 (ip), vehicle: other): 183 % of control and 207 % of control | T/C (dose: 4.0 mg/kg/injection, schedule: Q01DX005 (iv), vehicle: other): 154 % of control | T/C (dose: 4.0 mg/kg/injection, schedule: Q01DX005 (oral), vehicle: other): 120 % of control | T/C (dose: 4.0 mg/kg/injection, schedule: Q01DX009 (ip), vehicle: other): 192 % of control and 223 % of control and 90 % of control | T/C (dose: 4.0 mg/kg/injection, schedule: Q04DX003 (ip), vehicle: other): 163 % of control | T/C (dose: 4.0 mg/kg/injection, schedule: Q04DX003 (oral), vehicle: other): 119 % of control | T/C (dose: 4.3 mg/kg/injection, schedule: Q04DX002 (ip), vehicle: other): 179 % of control | T/C (dose: 4.32 mg/kg/injection, schedule: Q04DX003 (ip), vehicle: clinical formulation): 173 % of control | T/C (dose: 4.32 mg/kg/injection, schedule: Q04DX003 (ip), vehicle: saline): 175 % of control | T/C (dose: 4.32 mg/kg/injection, schedule: Q04DX003 (ip), vehicle: water): 169 % of control and 176 % of control and 180 % of control | T/C (dose: 5.0 mg/kg/injection, schedule: Q04DX002 (ip), vehicle: clinical formulation): 172 % of control and 186 % of control | T/C (dose: 5.0 mg/kg/injection, schedule: Q04DX003 (ip), vehicle: other): 156 % of control and 161 % of control and 193 % of control | T/C (dose: 6.0 mg/kg/injection, schedule: Q04DX003 (ip), vehicle: clinical formulation): 203 % of control | T/C (dose: 6.0 mg/kg/injection, schedule: Q04DX003 (ip), vehicle: saline with Tween-80): 175 % of control | T/C (dose: 6.25 mg/kg/injection, schedule: Q04DX002 (oral), vehicle: other): 101 % of control and 106 % of control | T/C (dose: 7.2 mg/kg/injection, schedule: Q04DX003 (ip), vehicle: clinical formulation): 216 % of control | T/C (dose: 7.2 mg/kg/injection, schedule: Q04DX003 (ip), vehicle: saline): 214 % of control | T/C (dose: 7.2 mg/kg/injection, schedule: Q04DX003 (ip), vehicle: water): 197 % of control and 204 % of control and 219 % of control | T/C (dose: 8.0 mg/kg/injection, schedule: Q01DX005 (ip), vehicle: other): 193 % of control | T/C (dose: 8.0 mg/kg/injection, schedule: Q04DX003 (ip), vehicle: other): 158 % of control and 204 % of control | T/C (dose: 8.0 mg/kg/injection, schedule: Q04DX003 (ip), vehicle: saline with Tween-80): 182 % of control and 235 % of control | T/C (dose: 8.0 mg/kg/injection, schedule: Q04DX003 (oral), vehicle: other): 123 % of control | T/C (dose: 10.0 mg/kg/injection, schedule: Q04DX002 (ip), vehicle: clinical formulation): 216 % of control and 238 % of control | T/C (dose: 10.0 mg/kg/injection, schedule: Q04DX003 (ip), vehicle: other): 182 % of control and 204 % of control and 245 % of control | T/C (dose: 10.8 mg/kg/injection, schedule: Q01DX001 (ip), vehicle: other): 153 % of control | T/C (dose: 12.0 mg/kg/injection, schedule: Q04DX003 (ip), vehicle: clinical formulation): 207 % of control and 228 % of control | T/C (dose: 12.0 mg/kg/injection, schedule: Q04DX003 (ip), vehicle: saline): 261 % of control | T/C (dose: 12.0 mg/kg/injection, schedule: Q04DX003 (ip), vehicle: water): 230 % of control and 231 % of control | T/C (dose: 12.5 mg/kg/injection, schedule: Q04DX002 (oral), vehicle: other): 107 % of control and 117 % of control | T/C (dose: 16.0 mg/kg/injection, schedule: Q04DX003 (ip), vehicle: other): 193 % of control and 245 % of control | T/C (dose: 18.0 mg/kg/injection, schedule: Q01DX001 (ip), vehicle: other): 165 % of control | T/C (dose: 18.0 mg/kg/injection, schedule: Q04DX003 (ip), vehicle: saline with Tween-80): 191 % of control and 264 % of control | T/C (dose: 20.0 mg/kg/injection, schedule: Q01DX001 (ip), vehicle: saline with Tween-80): 117 % of control | T/C (dose: 20.0 mg/kg/injection, schedule: Q04DX002 (ip), vehicle: clinical formulation): 281 % of control | T/C (dose: 22.5 mg/kg/injection, schedule: Q04DX003 (ip), vehicle: saline with Tween-80): 198 % of control | T/C (dose: 25.0 mg/kg/injection, schedule: Q04DX002 (oral), vehicle: other): 120 % of control | T/C (dose: 25.0 mg/kg/injection, schedule: Q04DX003 (ip), vehicle: saline with Tween-80): 161 % of control | T/C (dose: 30.0 mg/kg/injection, schedule: Q01DX001 (ip), vehicle: other): 180 % of control | T/C (dose: 30.0 mg/kg/injection, schedule: Q01DX001 (ip), vehicle: saline with Tween-80): 120 % of control | T/C (dose: 32.0 mg/kg/injection, schedule: Q04DX003 (oral), vehicle: other): 172 % of control | T/C (dose: 40.0 mg/kg/injection, schedule: Q01DX001 (ip), vehicle: saline with Tween-80): 228 % of control | T/C (dose: 40.0 mg/kg/injection, schedule: Q04DX003 (ip), vehicle: other): 86 % of control | T/C (dose: 45.0 mg/kg/injection, schedule: Q04DX003 (ip), vehicle: saline with Tween-80): 187 % of control and 222 % of control and 274 % of control | T/C (dose: 50.0 mg/kg/injection, schedule: Q01DX001 (ip), vehicle: saline with Tween-80): 124 % of control | T/C (dose: 50.0 mg/kg/injection, schedule: Q04DX002 (oral), vehicle: other): 151 % of control and 168 % of control | T/C (dose: 50.0 mg/kg/injection, schedule: Q04DX003 (oral), vehicle: other): 91 % of control | T/C (dose: 60.0 mg/kg/injection, schedule: Q01DX001 (ip), vehicle: saline with Tween-80): 252 % of control

CCc1ccc(C(=O)O)cc1S(=O)(=O)Cl
T/C (dose: 12.5 mg/kg/injection, schedule: Q01DX009 (ip), vehicle: saline sonified): 95 % of control | T/C (dose: 25.0 mg/kg/injection, schedule: Q01DX009 (ip), vehicle: saline sonified): 86 % of control | T/C (dose: 50.0 mg/kg/injection, schedule: Q01DX009 (ip), vehicle: saline sonified): 95 % of control

NC(Cc1ccc(Cl)cc1)c1nn[nH]n1 (stereo not drawn)
T/C [1]: 99 % of control | T/C [2]: 99 % of control | T/C [3]: 101 % of control

NNC(=O)OC12CC3CC(CC(C3)C1)C2
T/C [1]: 110 % of control | T/C [2]: 110 % of control

O=C1OC2=C(CCCC2)C(N2CCCCC2)C12SCCCS2 (stereo not drawn)
T/C (dose: 100.0 mg/kg/injection, schedule: Q04DX003 (ip), vehicle: saline with Tween-80): 109 % of control | T/C (dose: 200.0 mg/kg/injection, schedule: Q04DX003 (ip), vehicle: saline with Tween-80): 103 % of control | T/C (dose: 400.0 mg/kg/injection, schedule: Q04DX003 (ip), vehicle: saline with Tween-80): 101 % of control

CC1=C(C)CP(=O)(c2ccccc2)C1
T/C (dose: 25.0 mg/kg/injection, schedule: Q01DX009 (ip), vehicle: saline): 96 % of control | T/C [4]: 93 % of control | T/C [5]: 95 % of control | T/C [6]: 95 % of control

CCN1C(=O)Nc2ccc(Cl)cc2C1(O)c1ccccc1 (stereo not drawn)
T/C [1]: 95 % of control | T/C [2]: 102 % of control | T/C [3]: 99 % of control

N#CC1=C(C#N)CC(c2ccccc2)CC1 (stereo not drawn)
T/C [4]: 104 % of control | T/C [5]: 100 % of control | T/C [6]: 96 % of control
